# System: human MDR1 P-gp
# Assay: Assessment of efflux in MDCK cells transfected with the human MDR1 gene (MDCK assay)
# Assay type: in vitro ADME, canine
# Conditions: dog, MDCK-MDR1, pH 7.4, MDCK-MDR1; Papp (b-a) divided by Papp (a-b)
# Procedure: Assessment of Efflux in Madin-Darby Canine Kidney Cells Transfected with the Human MDR1 Gene (MDCK Assay)
# Apparent permeability coefficients (PE) of the compounds across the MDCK-MDR1 cell monolayers are measured (pH 7.4, 37° C.) in apical-to-basal (AB) and basal-to-apical (BA) transport direction. AB permeability (PEAB) represents drug absorption from the blood into the brain and BA permeability (PEBA) drug efflux from the brain back into the blood via both passive permeability as well as active transport mechanisms mediated by efflux and uptake transporters that are expressed on the MDCK-MDR1 cells, predominantly by the overexpressed human MDR1 P-gp. The compounds are assigned to permeability/absorption classes by comparison of the AB permeabilities with the AB permeabilities of reference compounds with known in vitro permeability and oral absorption in the human. Identical or similar permeabilities in both transport directions indicate passive permeation, vectorial permeability points to additional active transport mechanisms. Higher PEBA than PEAB indicates the involvement of active efflux mediated by MDR1 P-gp. Active transport is concentration-dependently saturable.
# MDCK-MDR1 cells (1-2×10e5 cells/1 cm2 area) are seeded on filter inserts (Costar transwell polycarbonate or PET filters, 0.4 μm pore size) and cultured (DMEM) for 7 days. Subsequently, the MDR1 expression is boosted by culturing the cells with 5 mM sodium butyrate in full medium for 2 days. Compounds are dissolved in appropriate solvent (like DMSO, 1-20 mM stock solutions). […] The transport solution (TL) is applied to the apical or basolateral donor side for measuring A-B or B-A permeability (3 filter replicates), respectively. The receiver side contains the same buffer as the donor side. Samples are collected at the start and end of experiment from the donor and at various time intervals for up to 2 hours also from the receiver side for concentration measurement by HPLC-MS/MS or scintillation counting. Sampled receiver volumes are replaced with fresh receiver solution. Efflux ratio is calculated dividing the Papp (b-a) values by the Papp (a-b) values.
row,Compound,efflux ratio at 2 h
1,Cc1nn2cc(C3CC3)cnc2c1C(=O)NC1(c2ccc(C(F)(F)F)nc2)CCOCC1 [Example 25],0.8
2,Cc1cnc2c(C(=O)NC3(c4ccc(C(F)(F)F)cc4F)CCOCC3)cnn2c1 [Example 2],0.6
3,"O=C(NC1(c2ccc(C(F)(F)F)cc2F)CCOCC1O)c1cnn2cc(C3CC3)cnc12 (single isomer, unassigned) [Example 82a]",1
4,O=C(NC1(c2ccc(C(F)(F)F)cc2F)CCOCC1)c1cnn2cc(F)cnc12 [Example 3],0.7
5,O=C(NC1(c2ccc(C(F)(F)F)cc2)CCOC1)c1cnn2cc(C3CC3)cnc12 (racemic) [Example 37],0.5
6,Cc1nn2cc(C3CC3)cnc2c1C(=O)NC1(c2ncc(C(F)(F)F)cc2F)CCOCC1 [Example 17],0.6
7,Cc1nn2cc(C3CC3)cnc2c1C(=O)NC1(c2ccc(C(F)(F)F)cn2)CCOCC1 [Example 21],0.6
8,"O=C(NC1(c2ccc(C(F)(F)F)cc2F)COCC1O)c1cnn2cc(C3CC3)cnc12 (single isomer, unassigned) [Example 69]",1.3

# Same assay, conditions: dog, MDCK-MDR1, pH 7.4, MDCK-MDR1 monolayers, apical-to-basal, pH 7.4, 37° C.
row,Compound,Papp A→B at 2 h [×10⁻⁶ cm/s]
1,CC1(O)COCCC1(NC(=O)c1cnn2cc(C3CC3)cnc12)c1ccc(C(F)(F)F)cc1F (racemic) [Example 53],15
2,Cc1nn2cc(C3CC3)cnc2c1C(=O)NC1(c2ccc(C(F)(F)F)nc2)CCOCC1 [Example 25],100
3,Cc1cnc2c(C(=O)NC3(c4ccc(C(F)(F)F)cc4F)CCOCC3)cnn2c1 [Example 2],84
4,"O=C(NC1(c2ccc(C(F)(F)F)cc2F)CCOCC1O)c1cnn2cc(C3CC3)cnc12 (single isomer, unassigned) [Example 82a]",59
5,O=C(NC1(c2ccc(C(F)(F)F)cc2F)CCOCC1)c1cnn2cc(F)cnc12 [Example 3],97
6,O=C(NC1(c2ccc(C(F)(F)F)cc2)CCOC1)c1cnn2cc(C3CC3)cnc12 (racemic) [Example 37],86
7,Cc1cnc2c(C(=O)NC3(c4ccc(C(F)(F)F)cc4F)CCOCC3O)cnn2c1 (racemic) [Example 46],60
8,"Cc1cnc2c(C(=O)NC3(c4ccc(C(F)(F)F)cc4F)CCOCC3O)cnn2c1 (single isomer, unassigned) [Example 81a]",60
9,Cc1nn2cc(C3CC3)cnc2c1C(=O)NC1(c2ncc(C(F)(F)F)cc2F)CCOCC1 [Example 17],85
10,"Cc1cnc2c(C(=O)NC3(c4ccc(C(F)(F)F)cc4F)CCOCC3(C)O)cnn2c1 (single isomer, unassigned) [Example 83a]",34
11,Cc1nn2cc(C3CC3)cnc2c1C(=O)NC1(c2ccc(C(F)(F)F)cn2)CCOCC1 [Example 21],94
12,"O=C(NC1(c2ccc(C(F)(F)F)cc2F)COCC1O)c1cnn2cc(C3CC3)cnc12 (single isomer, unassigned) [Example 69]",25
13,Cc1nn2cc(C3CC3)cnc2c1C(=O)NC1(c2ccc(C(F)(F)F)nc2)CCOCC1O (racemic) [Example 51],11

# From US10479794B2, “Cyclic ether derivatives of pyrazolo[1,5-a]pyrimidine-3-carboxyamide” (Boehringer Ingelheim International GmbH, priority 2015, dated 2019)
